Measured values as given in US20260263651A1, “WOUND DRESSING” (UNIVERSITY OF SUNDERLAND, priority 2023, published 2026).

Key:
Pseudomonas aeruginosa = experiment: Microbiological evaluation of standardised bacterial suspensions, modified wound dressing with absorbed substrate on agar; assay type: cell-based; design: key to Observable colour change: − indicates no colour change; +− indicates relatively discernible blue colour change; + indicates a moderately strong blue colour change; ++ indicates a strong blue colour change
Description: (§1) ACTIVHEAL® simply A (10×20 cm) non-adhesive foam samples were provided by Advanced Medical Solutions Ltd. The wound dressings were cut into ~5-10×5-10 mm squares, using an ethanol washed pair of scissors. A maximum of 0.20 g of the material was added into 10 mL DI water, and the pH was adjusted to ~3 by the addition of 0.1 M aq. HCl solution. The solution was stirred for 10 mins at room temperature, followed by the addition of 0.33 g EDC •HCl (1.7 mmol) and the pH was maintained at ~3 by the addition of 0.1 M aq. HCl solution. The solution was stirred at room temperature for 10 mins followed by the addition of 0.88 g compound 8 which was dissolved in DMSO or DMF. The mixture was stirred at room temperature for 48 h. The wound dressings were filtered and were washed with ethanol. To ensure the full removal of any non-coupled amide (8), the foam samples were resuspended in ethanol, stirred for 10 mins and filtered, and this process was repeated until the amide (8) was not detectable from the filtrate (this could be maintained by TLC or HPLC evaluation). The samples were dried in a vacuum oven for 3-4 h.
(§2) The aqueous solution of 3a or 3b was prepared by the following: the desired amount of the enzymatic substrate (3.0 mg for 300 mg/L, 6.0 mg for 600 mg/L, 9.0 mg for 900 mg/L, 15.0 mg for 1500 mg/L, and 30.0 mg for 3000 mg/L) was weighed out on a 4 decimal place balance within ±0.3 mg error limit into a 10 mL volumetric flask and was adjusted to 10.0 mL with DI water. The solutions were absorbed into the foam samples and dried in a vacuum oven at 40° C. overnight.
(§3) Bacterial strains were routinely cultured from working stocks in Tryptic Soy Broth (TSB) and incubated at 37° C. overnight with shaking at 150 RPM. Overnight cultures were centrifuged at 3000×g for 5 minutes, the supernatant discarded, and the pellet resuspended in 10 mL phosphate buffered saline (PBS). Bacterial inoculums were standardised by optical density at 600 nm on an Amersham Biosciences Ultrospec 10 spectrophotometer (Amersham Biosciences, Amersham, UK) to contain between 1 and 3×10^8 CFU/mL.
(§4) However, rapid evaluation of lower bacteria concentrations is essential for the desired clinical application. […] The solutions were absorbed into the wound dressing samples, which were dried overnight under vacuum at 40° C.
(§5) Two Gram negative strains (Escherichia coli—EC and Pseudomonas aeruginosa—PSA) and a Gram-positive bacterium (Staphylococcus aureus—SA) were evaluated. The bacteria were incubated overnight, centrifuged at 3000×g for 5 mins, the supernatant was discarded, and the residue pellets were resuspended in 10 mL PBS. The inoculums were standardised by measuring the optical density at 600 nm to assure a 1-3×10^8 CFU/mL. The standardised solutions were further diluted to prepare 1-3×10^6 and 1-3×10^4 CFU/mL suspension. 1×10^6 CFU would be an ideal breakpoint for a positive result, as this concentration coincides well with a level of colonisation that would likely go on to produce an infection.
(§6) 100 μL bacterial suspensions were smeared over agar plates. Wound dressing samples were added to the top of the agar and were rolled over a few times (to ensure a full coverage and to ease the visibility of the colour change). The plates were incubated at 37° C., and the results were recorded after 24 h, after 48 h, after 72 h. The results are shown in Table 3-5; − indicates no colour change, +− indicates relatively discernible blue colour change, + indicates a moderately strong blue colour change and ++ indicates a strong blue colour change.

Staphylococcus aureus = experiment: as above; assay type: cell-based; design: key to Observable colour change: − indicates no colour change; +− indicates relatively discernible blue colour change; + indicates a moderately strong blue colour change; ++ indicates a strong blue colour change; details: for colour change: SA
Description: as §1, §2, §3, §4, §5, §6

SMILES: CC(C)C[C@H](N)C(=O)Nc1ccc(N(C)C)cc1.Cl [3a, (2S)-2-amino-N-[4-(dimethylamino)phenyl]-4-methyl-pentanamide hydrochloride]
- Observable colour change (Pseudomonas aeruginosa; PSA 10^4, substrate 300 mg/L, 24 h at 37° C.): −
- Observable colour change (Pseudomonas aeruginosa; PSA 10^4, substrate 300 mg/L, 48 h at 37° C.): −
- Observable colour change (Pseudomonas aeruginosa; PSA 10^4, substrate 300 mg/L, 72 h at 37° C.): +
- Observable colour change (Pseudomonas aeruginosa; PSA 10^4, substrate 900 mg/L, 24 h at 37° C.): −
- Observable colour change (Pseudomonas aeruginosa; PSA 10^4, substrate 900 mg/L, 48 h at 37° C.): +−
- Observable colour change (Pseudomonas aeruginosa; PSA 10^4, substrate 900 mg/L, 72 h at 37° C.): ++
- Observable colour change (Pseudomonas aeruginosa; PSA 10^4, substrate 1500 mg/L, 24 h at 37° C.): −
- Observable colour change (Pseudomonas aeruginosa; PSA 10^4, substrate 1500 mg/L, 48 h at 37° C.): −
- Observable colour change (Pseudomonas aeruginosa; PSA 10^4, substrate 1500 mg/L, 72 h at 37° C.): ++
- Observable colour change (Pseudomonas aeruginosa; PSA 10^6, substrate 300 mg/L, 24 h at 37° C.): −
- Observable colour change (Pseudomonas aeruginosa; PSA 10^6, substrate 300 mg/L, 48 h at 37° C.): −
- Observable colour change (Pseudomonas aeruginosa; PSA 10^6, substrate 300 mg/L, 72 h at 37° C.): +
- Observable colour change (Pseudomonas aeruginosa; PSA 10^6, substrate 900 mg/L, 24 h at 37° C.): −
- Observable colour change (Pseudomonas aeruginosa; PSA 10^6, substrate 900 mg/L, 48 h at 37° C.): −
- Observable colour change (Pseudomonas aeruginosa; PSA 10^6, substrate 900 mg/L, 72 h at 37° C.): ++
- Observable colour change (Pseudomonas aeruginosa; PSA 10^6, substrate 1500 mg/L, 24 h at 37° C.): −
- Observable colour change (Pseudomonas aeruginosa; PSA 10^6, substrate 1500 mg/L, 48 h at 37° C.): +−
- Observable colour change (Pseudomonas aeruginosa; PSA 10^6, substrate 1500 mg/L, 72 h at 37° C.): +
- colour change (Pseudomonas aeruginosa; PSA 10^8, 10^6 or 10^4 CFU, after 72 h, every tested substrate concentration): moderate or strong blue colour changes
- Observable colour change (Pseudomonas aeruginosa; PSA 10^8, substrate 300 mg/L, 24 h at 37° C.): −
- Observable colour change (Pseudomonas aeruginosa; PSA 10^8, substrate 300 mg/L, 48 h at 37° C.): −
- Observable colour change (Pseudomonas aeruginosa; PSA 10^8, substrate 300 mg/L, 72 h at 37° C.): +
- Observable colour change (Pseudomonas aeruginosa; PSA 10^8, substrate 900 mg/L, 24 h at 37° C.): −
- Observable colour change (Pseudomonas aeruginosa; PSA 10^8, substrate 900 mg/L, 48 h at 37° C.): +
- Observable colour change (Pseudomonas aeruginosa; PSA 10^8, substrate 900 mg/L, 72 h at 37° C.): ++
- Observable colour change (Pseudomonas aeruginosa; PSA 10^8, substrate 1500 mg/L, 24 h at 37° C.): −
- Observable colour change (Pseudomonas aeruginosa; PSA 10^8, substrate 1500 mg/L, 48 h at 37° C.): +
- Observable colour change (Pseudomonas aeruginosa; PSA 10^8, substrate 1500 mg/L, 72 h at 37° C.): ++
- colour change (Pseudomonas aeruginosa; PSA, substrate 900 or 1500 mg/L, printed in the 48 h paragraph): moderate or strong colour change
- Observable colour change (Staphylococcus aureus; SA 10^4, substrate 300 mg/L, 24 h at 37° C.): −
- Observable colour change (Staphylococcus aureus; SA 10^4, substrate 300 mg/L, 48 h at 37° C.): −
- Observable colour change (Staphylococcus aureus; SA 10^4, substrate 300 mg/L, 72 h at 37° C.): −
- Observable colour change (Staphylococcus aureus; SA 10^4, substrate 900 mg/L, 24 h at 37° C.): −
- Observable colour change (Staphylococcus aureus; SA 10^4, substrate 900 mg/L, 48 h at 37° C.): −
- Observable colour change (Staphylococcus aureus; SA 10^4, substrate 900 mg/L, 72 h at 37° C.): −
- Observable colour change (Staphylococcus aureus; SA 10^4, substrate 1500 mg/L, 24 h at 37° C.): −
- Observable colour change (Staphylococcus aureus; SA 10^4, substrate 1500 mg/L, 48 h at 37° C.): −
- Observable colour change (Staphylococcus aureus; SA 10^4, substrate 1500 mg/L, 72 h at 37° C.): −
- Observable colour change (Staphylococcus aureus; SA 10^6, substrate 300 mg/L, 24 h at 37° C.): −
- Observable colour change (Staphylococcus aureus; SA 10^6, substrate 300 mg/L, 48 h at 37° C.): −
- Observable colour change (Staphylococcus aureus; SA 10^6, substrate 300 mg/L, 72 h at 37° C.): −
- Observable colour change (Staphylococcus aureus; SA 10^6, substrate 900 mg/L, 24 h at 37° C.): −
- Observable colour change (Staphylococcus aureus; SA 10^6, substrate 900 mg/L, 48 h at 37° C.): −
- Observable colour change (Staphylococcus aureus; SA 10^6, substrate 900 mg/L, 72 h at 37° C.): −
- Observable colour change (Staphylococcus aureus; SA 10^6, substrate 1500 mg/L, 24 h at 37° C.): −
- Observable colour change (Staphylococcus aureus; SA 10^6, substrate 1500 mg/L, 48 h at 37° C.): −
- Observable colour change (Staphylococcus aureus; SA 10^6, substrate 1500 mg/L, 72 h at 37° C.): −
- Observable colour change (Staphylococcus aureus; SA 10^8, substrate 300 mg/L, 24 h at 37° C.): −
- Observable colour change (Staphylococcus aureus; SA 10^8, substrate 300 mg/L, 48 h at 37° C.): −
- Observable colour change (Staphylococcus aureus; SA 10^8, substrate 300 mg/L, 72 h at 37° C.): −
- Observable colour change (Staphylococcus aureus; SA 10^8, substrate 900 mg/L, 24 h at 37° C.): −
- Observable colour change (Staphylococcus aureus; SA 10^8, substrate 900 mg/L, 48 h at 37° C.): −
- Observable colour change (Staphylococcus aureus; SA 10^8, substrate 900 mg/L, 72 h at 37° C.): −
- Observable colour change (Staphylococcus aureus; SA 10^8, substrate 1500 mg/L, 24 h at 37° C.): −
- Observable colour change (Staphylococcus aureus; SA 10^8, substrate 1500 mg/L, 48 h at 37° C.): +−
- Observable colour change (Staphylococcus aureus; SA 10^8, substrate 1500 mg/L, 72 h at 37° C.): +−
- colour change (Staphylococcus aureus; 48 h paragraph, substrate 1500 mg/L): weak, but discernible colour change
- colour change (Staphylococcus aureus; after 72 h, substrate 1500 mg/L): weak, hardly visible colour change
